# Assay results reported in paper PMC8355244, “A fragment-based approach identifies an allosteric pocket that impacts malate dehydrogenase activity” (Communications Biology, 2021).
# Molecular target: T1, PfMDH (Plasmodium falciparum, UniProt Q6VVP7)
# T1 construct: The full-length WT PfMDH gene was cloned into pETM-13; made in house; host or cells: E. coli Rosetta 2 (DE3) pLysS
# Assay: Thermal shift assay (TSA)
# Format: binding
# Conditions: for TSA melting curve raw signal: triplicate columns; for TSA melting curve raw fluorescence signal: three replicate columns
# How it was run: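 10 μM PfMDH with 1 mM compound in 100 mM Na–phosphate pH 7.4, 400 mM NaCl, 10× Sypro Orange; 1% DMSO controls. Melting inflection points taken as Tm; shifts >1 °C read as stabilization, negative shifts as destabilization.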
# T1 sequence (Q6VVP7 entry or part of it): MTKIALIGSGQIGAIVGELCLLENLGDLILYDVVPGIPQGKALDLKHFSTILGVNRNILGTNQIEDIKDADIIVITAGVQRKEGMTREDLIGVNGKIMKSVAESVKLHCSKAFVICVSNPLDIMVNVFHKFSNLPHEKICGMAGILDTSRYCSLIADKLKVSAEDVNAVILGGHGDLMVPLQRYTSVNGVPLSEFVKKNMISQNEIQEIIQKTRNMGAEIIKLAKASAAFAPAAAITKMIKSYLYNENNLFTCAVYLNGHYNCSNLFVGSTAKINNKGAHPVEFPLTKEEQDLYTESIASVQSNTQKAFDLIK
structure (smiles),measurement,setting,value
Nc1nc(-c2cccc(C(F)(F)F)c2)cs1 [4PA-CF3],TSA melting curve raw signal,Temperature 25,"3528,09586476992"
same,TSA melting curve raw signal,Temperature 25.5,"3521,76972099321"
same,TSA melting curve raw signal,Temperature 26,"3515,44357721651"
same,TSA melting curve raw signal,Temperature 26.5,"3509,11743343981"
same,TSA melting curve raw signal,Temperature 27,"3502,7912896631"
same,TSA melting curve raw signal,Temperature 27.5,"3496,46514588642"
same,TSA melting curve raw signal,Temperature 28,"3490,13900210971"
same,TSA melting curve raw signal,Temperature 28.5,"3483,6143624971"
same,TSA melting curve raw signal,Temperature 29,"3476,38988350175"
same,TSA melting curve raw signal,Temperature 29.5,"3468,17176134374"
same,TSA melting curve raw signal,Temperature 30,"3458,89345122044"
same,TSA melting curve raw signal,Temperature 30.5,"3449,61666086928"
same,TSA melting curve raw signal,Temperature 31,"3441,08813548452"
same,TSA melting curve raw signal,Temperature 31.5,"3434,74480463775"
same,TSA melting curve raw signal,Temperature 32,"3431,63306422988"
same,TSA melting curve raw signal,Temperature 32.5,"3433,04755783933"
same,TSA melting curve raw signal,Temperature 33,"3439,08846015031"
same,TSA melting curve raw signal,Temperature 33.5,"3450,49167244057"
same,TSA melting curve raw signal,Temperature 34,"3467,07326310557"
same,TSA melting curve raw signal,Temperature 34.5,"3489,23124555062"
same,TSA melting curve raw signal,Temperature 35,"3516,74965348479"
same,TSA melting curve raw signal,Temperature 35.5,"3550,12307997406"
same,TSA melting curve raw signal,Temperature 36,"3588,6701161146"
same,TSA melting curve raw signal,Temperature 36.5,"3632,52278047685"
same,TSA melting curve raw signal,Temperature 37,"3681,13015232277"
same,TSA melting curve raw signal,Temperature 37.5,"3734,10747497721"
same,TSA melting curve raw signal,Temperature 38,"3790,66694872421"
same,TSA melting curve raw signal,Temperature 38.5,"3851,32307413445"
same,TSA melting curve raw signal,Temperature 39,"3915,60016677996"
same,TSA melting curve raw signal,Temperature 39.5,"3983,88715310611"
same,TSA melting curve raw signal,Temperature 40,"4056,33336034943"
same,TSA melting curve raw signal,Temperature 40.5,"4133,49326014565"
same,TSA melting curve raw signal,Temperature 41,"4215,01497025314"
same,TSA melting curve raw signal,Temperature 41.5,"4301,78127396551"
same,TSA melting curve raw signal,Temperature 42,"4393,43575455581"
same,TSA melting curve raw signal,Temperature 42.5,"4490,37169124646"
same,TSA melting curve raw signal,Temperature 43,"4592,69941738304"
same,TSA melting curve raw signal,Temperature 43.5,"4701,32966638299"
same,TSA melting curve raw signal,Temperature 44,"4815,85327556672"
same,TSA melting curve raw signal,Temperature 44.5,"4937,62413315095"
same,TSA melting curve raw signal,Temperature 45,"5067,14562465788"
same,TSA melting curve raw signal,Temperature 45.5,"5204,83599333482"
same,TSA melting curve raw signal,Temperature 46,"5349,70118139591"
same,TSA melting curve raw signal,Temperature 46.5,"5501,84311892238"
same,TSA melting curve raw signal,Temperature 47,"5660,17327748149"
same,TSA melting curve raw signal,Temperature 47.5,"5824,5723421521"
same,TSA melting curve raw signal,Temperature 48,"5994,36303099828"
same,TSA melting curve raw signal,Temperature 48.5,"6169,71492788648"
same,TSA melting curve raw signal,Temperature 49,"6349,90301622462"
same,TSA melting curve raw signal,Temperature 49.5,"6533,67708046246"
same,TSA melting curve raw signal,Temperature 50,"6718,43346697938"
same,TSA melting curve raw signal,Temperature 50.5,"6903,01197489117"
same,TSA melting curve raw signal,Temperature 51,"7086,14140810373"
same,TSA melting curve raw signal,Temperature 51.5,"7267,40973427596"
same,TSA melting curve raw signal,Temperature 52,"7446,07311090688"
same,TSA melting curve raw signal,Temperature 52.5,"7623,17790419487"
same,TSA melting curve raw signal,Temperature 53,"7798,35186729642"
same,TSA melting curve raw signal,Temperature 53.5,"7971,57187818721"
same,TSA melting curve raw signal,Temperature 54,"8142,18042787582"
same,TSA melting curve raw signal,Temperature 54.5,"8310,47539211232"
same,TSA melting curve raw signal,Temperature 55,"8475,6367965612"
same,TSA melting curve raw signal,Temperature 55.5,"8637,15264587991"
same,TSA melting curve raw signal,Temperature 56,"8794,24720730786"
same,TSA melting curve raw signal,Temperature 56.5,"8944,76644495546"
same,TSA melting curve raw signal,Temperature 57,"9087,23982318044"
same,TSA melting curve raw signal,Temperature 57.5,"9218,83300839243"
same,TSA melting curve raw signal,Temperature 58,"9336,46564098951"
same,TSA melting curve raw signal,Temperature 58.5,"9436,67708833889"
same,TSA melting curve raw signal,Temperature 59,"9517,94306567009"
same,TSA melting curve raw signal,Temperature 59.5,"9577,90589829803"
same,TSA melting curve raw signal,Temperature 60,"9615,75986877433"
same,TSA melting curve raw signal,Temperature 60.5,"9632,47637998784"
same,TSA melting curve raw signal,Temperature 61,"9629,58012627007"
same,TSA melting curve raw signal,Temperature 61.5,"9608,67157988917"
same,TSA melting curve raw signal,Temperature 62,"9572,5500875914"
same,TSA melting curve raw signal,Temperature 62.5,"9524,64551903011"
same,TSA melting curve raw signal,Temperature 63,"9467,03768559296"
same,TSA melting curve raw signal,Temperature 63.5,"9402,51349679748"
same,TSA melting curve raw signal,Temperature 64,"9333,57184164816"
same,TSA melting curve raw signal,Temperature 64.5,"9261,62563971527"
same,TSA melting curve raw signal,Temperature 65,"9187,49083186044"
same,TSA melting curve raw fluorescence signal,Temperature 65.5,"9112,23978010048"
same,TSA melting curve raw fluorescence signal,Temperature 66,"9036,14068242361"
same,TSA melting curve raw fluorescence signal,Temperature 66.5,"8959,64465212255"
same,TSA melting curve raw fluorescence signal,Temperature 67,"8882,7175782058"
same,TSA melting curve raw fluorescence signal,Temperature 67.5,"8805,44643012468"
same,TSA melting curve raw fluorescence signal,Temperature 68,"8728,2852860298"
same,TSA melting curve raw fluorescence signal,Temperature 68.5,"8651,13021944227"
same,TSA melting curve raw fluorescence signal,Temperature 69,"8573,32870649645"
same,TSA melting curve raw fluorescence signal,Temperature 69.5,"8495,58180428762"
same,TSA melting curve raw fluorescence signal,Temperature 70,"8418,5896254098"
same,TSA melting curve raw fluorescence signal,Temperature 70.5,"8341,60149220391"
same,TSA melting curve raw fluorescence signal,Temperature 71,"8265,01816022305"
same,TSA melting curve raw fluorescence signal,Temperature 71.5,"8189,69867306721"
same,TSA melting curve raw fluorescence signal,Temperature 72,"8115,16555879573"
same,TSA melting curve raw fluorescence signal,Temperature 72.5,"8040,74958248259"
same,TSA melting curve raw fluorescence signal,Temperature 73,"7967,12767450409"
same,TSA melting curve raw fluorescence signal,Temperature 73.5,"7893,92662128296"
same,TSA melting curve raw fluorescence signal,Temperature 74,"7821,33430208039"
same,TSA melting curve raw fluorescence signal,Temperature 74.5,"7749,70992701054"
same,TSA melting curve raw fluorescence signal,Temperature 75,"7679,18807246448"
same,TSA melting curve raw fluorescence signal,Temperature 75.5,"7609,86094414536"
same,TSA melting curve raw fluorescence signal,Temperature 76,"7542,08165155543"
same,TSA melting curve raw fluorescence signal,Temperature 76.5,"7475,0463497461"
same,TSA melting curve raw fluorescence signal,Temperature 77,"7409,10099573983"
same,TSA melting curve raw fluorescence signal,Temperature 77.5,"7344,43096825342"
same,TSA melting curve raw fluorescence signal,Temperature 78,"7280,55827608543"
same,TSA melting curve raw fluorescence signal,Temperature 78.5,"7217,66024170967"
same,TSA melting curve raw fluorescence signal,Temperature 79,"7156,47260834302"
same,TSA melting curve raw fluorescence signal,Temperature 79.5,"7096,07409325447"
same,TSA melting curve raw fluorescence signal,Temperature 80,"7036,61045690039"
same,TSA melting curve raw fluorescence signal,Temperature 80.5,"6978,28713486927"
same,TSA melting curve raw fluorescence signal,Temperature 81,"6920,87145232924"
same,TSA melting curve raw fluorescence signal,Temperature 81.5,"6863,63731764689"
same,TSA melting curve raw fluorescence signal,Temperature 82,"6807,28937755567"
same,TSA melting curve raw fluorescence signal,Temperature 82.5,"6751,29328141381"
same,TSA melting curve raw fluorescence signal,Temperature 83,"6695,78422169472"
same,TSA melting curve raw fluorescence signal,Temperature 83.5,"6641,03413791343"
same,TSA melting curve raw fluorescence signal,Temperature 84,"6587,1569082437"
same,TSA melting curve raw fluorescence signal,Temperature 84.5,"6533,84298175497"
same,TSA melting curve raw fluorescence signal,Temperature 85,"6481,33407729233"
same,TSA melting curve raw fluorescence signal,Temperature 85.5,"6429,30339853042"
same,TSA melting curve raw fluorescence signal,Temperature 86,"6377,40763821637"
same,TSA melting curve raw fluorescence signal,Temperature 86.5,"6325,81148238932"
same,TSA melting curve raw fluorescence signal,Temperature 87,"6274,52300647726"
same,TSA melting curve raw fluorescence signal,Temperature 87.5,"6222,85213595833"
same,TSA melting curve raw fluorescence signal,Temperature 88,"6171,16491119654"
same,TSA melting curve raw fluorescence signal,Temperature 88.5,"6119,12156951999"
same,TSA melting curve raw fluorescence signal,Temperature 89,"6066,61924971662"
same,TSA melting curve raw fluorescence signal,Temperature 89.5,"6013,73939632859"
same,TSA melting curve raw fluorescence signal,Temperature 90,"5961,79604131278"
same,TSA melting curve raw fluorescence signal,Temperature 90.5,"5910,31866711244"
same,TSA melting curve raw fluorescence signal,Temperature 91,"5859,96386783167"
same,TSA melting curve raw fluorescence signal,Temperature 91.5,"5810,60393842017"
same,TSA melting curve raw fluorescence signal,Temperature 92,"5761,96047868944"
same,TSA melting curve raw fluorescence signal,Temperature 92.5,"5713,35101332965"
same,TSA melting curve raw fluorescence signal,Temperature 93,"5664,77915169386"
same,TSA melting curve raw fluorescence signal,Temperature 93.5,"5615,83290965879"
same,TSA melting curve raw fluorescence signal,Temperature 94,"5566,24729616446"
same,TSA melting curve raw fluorescence signal,Temperature 94.5,"5516,6627489992"
same,TSA melting curve raw fluorescence signal,Temperature 95,"5465,82751388956"
